Experimental data taken from US5328909A, “Cyclopropenone derivatives” (Mitsubishi Kasei Corporation, priority 1991, dated 1994).
pIC50: −log10 of the molar value.

Target: T1, m-calpain (Rattus norvegicus, UniProt Q07009)
T1 construct: m-calpain was purified from rat brain; from tissue; host or cells: rat brain
T1 sequence (Q07009 20-700 limits assumed): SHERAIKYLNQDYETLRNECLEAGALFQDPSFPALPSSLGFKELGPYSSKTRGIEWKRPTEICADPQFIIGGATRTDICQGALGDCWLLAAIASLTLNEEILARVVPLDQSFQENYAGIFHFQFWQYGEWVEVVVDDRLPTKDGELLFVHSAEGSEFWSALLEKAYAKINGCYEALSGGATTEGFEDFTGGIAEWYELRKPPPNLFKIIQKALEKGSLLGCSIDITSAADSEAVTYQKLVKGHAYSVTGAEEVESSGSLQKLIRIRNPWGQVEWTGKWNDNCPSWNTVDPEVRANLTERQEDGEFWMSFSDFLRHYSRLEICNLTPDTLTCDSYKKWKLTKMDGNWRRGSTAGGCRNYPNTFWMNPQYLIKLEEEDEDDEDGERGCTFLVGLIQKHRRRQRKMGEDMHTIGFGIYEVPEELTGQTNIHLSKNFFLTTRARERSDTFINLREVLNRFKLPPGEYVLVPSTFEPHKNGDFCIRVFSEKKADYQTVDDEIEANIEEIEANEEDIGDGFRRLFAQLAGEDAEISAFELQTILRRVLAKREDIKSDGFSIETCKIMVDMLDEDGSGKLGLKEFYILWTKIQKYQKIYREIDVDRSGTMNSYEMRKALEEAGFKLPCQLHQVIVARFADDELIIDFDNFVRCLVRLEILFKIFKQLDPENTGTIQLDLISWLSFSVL
T1 sequence (Q64537 1-270 partner): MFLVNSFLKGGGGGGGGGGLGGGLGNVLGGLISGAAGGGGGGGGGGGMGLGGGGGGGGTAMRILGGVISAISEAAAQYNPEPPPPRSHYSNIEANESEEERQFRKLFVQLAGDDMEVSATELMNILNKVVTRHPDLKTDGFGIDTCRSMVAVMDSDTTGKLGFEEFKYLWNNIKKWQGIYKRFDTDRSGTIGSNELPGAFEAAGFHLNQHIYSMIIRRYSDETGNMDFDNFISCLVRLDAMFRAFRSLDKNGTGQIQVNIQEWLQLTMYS
Assay: Thiol protease inhibitory activity against m-calpain purified from rat brain
Type: biochemical
Conditions: Table 4; rat brain enzyme; read-out: Inhibitory activity against m-calpain IC50
Method: Inhibitory activity against papain (P-3125, Sigma) and cathepsin B (C-6286, Sigma) was assayed according to the method described in a literature [Biochemical Journal, 201, 189 (1982)]. Capthesin L was purified from rat kidney according to the method in a literature [Journal of Biochemistry, 100, 35 (1986)], and the inhibitory activity against it was assayed in the same manner as described in the above literature for cathepsin B. Further, m-calpain was purified from rat brain according to a known method [Journal of Biological Chemistry, 254, p.3210 (1984)] and the inhibitory activity against it was assayed by a method described in a literature [Journal of Biological Chemistry, 259, 12489 (1984)]. The results are showing in Tables 3 and 4. It is evident from Tables 3 and 4 that the compounds in the present invention have a potent inhibitory activity against thiol proteases such as papain, cathepsin B, cathepsin L, m-calpain or the like.

CC(C)C[C@H](NS(=O)(=O)c1ccccc1)C(=O)N[C@@H](C(C)C)[C@@H](O)c1c(-c2ccccc2)c1=O [80 (No. 239), 2-[(1S, 2S)-1-hydroxy-3-methyl-2-((S)-4-methyl-2-phenylsulfonylaminovalerylamino)butyl]-3-phenylcyclopropenone]
pIC50: 6.46

CC(C)C[C@H](NS(=O)(=O)c1ccccc1)C(=O)N[C@@H](C(C)C)[C@H](O)c1c(-c2ccccc2)c1=O [81 (No. 239), 2-[(1R, 2S)-1-hydroxy-3-methyl-2-((S)-4-methyl-2-phenylsulfonylaminovalerylamino)butyl]-3-phenylcyclopropenone]
pIC50: 5.37

CC(C)C[C@H](NC(=O)c1ccco1)C(=O)N[C@@H](C(C)C)[C@@H](O)c1c(-c2ccccc2)c1=O [67 (No. 197), 2-[(1S, 2S)-2-{(S)-2-(2-furoylamino)-4-methylvalerylamino}-1-hydroxy-3-methylbutyl]-3-phenylcyclopropenone]
pIC50: 6.06

CC(C)C[C@H](NC(=O)CCC1CCCCC1)C(=O)N[C@@H](C(C)C)[C@@H](O)c1c(-c2ccccc2)c1=O [39 (No. 124), 2-[(1S, 2S)-2-{(S)-2-(3-cyclohexylpropionylamino)-4-methylvalerylamino} -1-hydroxy-3-methylbutyl]-3-phenylcyclopropenone]
pIC50: 5.72

CC(C)C[C@H](NS(=O)(=O)c1cccc2ccccc12)C(=O)N[C@@H](C(C)C)[C@@H](O)c1c(-c2ccccc2)c1=O [88 (No. 259), 2-[(1S, 2S)-1-hydroxy-3-methyl-2-{(S)-4-methyl-2-(1-naphtylsulfonylamino)valerylamino}butyl]-3-phenylcyclopropenone]
pIC50: 6.19

CC(=O)CCC(=O)N[C@@H](CC(C)C)C(=O)N[C@@H](C(C)C)[C@@H](O)c1c(-c2ccccc2)c1=O [44 (No. 137), 2-[(1S, 2S)-1-hydroxy-3-methyl-2-(S)-4-methyl-2-(4-oxovalerylamino)valerylamino]-3-phenylcyclopropenone]
pIC50: 5.52

CC(C)C[C@H](NC(=O)OCC1CCCCC1)C(=O)N[C@@H](C(C)C)[C@@H](O)c1c(-c2ccc(F)cc2)c1=O [105 (No. 311), 2-[(1S, 2S)-2-((S)-2-cyclohexylmethoxycarbonylamino-4-methylvalerylamino)-1-hydroxy-3-methylbutyl]-3-(4-fluorophenyl)cyclopropenone]
pIC50: 5.82

CC(C)C[C@H](NC(=O)c1ccccc1Cl)C(=O)N[C@@H](C(C)C)[C@@H](O)c1c(-c2ccccc2)c1=O [60 (No. 178), 2-[(1S, 2S)-2-{(S)-2-(2-chlorobenzoylamino)-4-methylvalerylamino}-hydroxy-3-methylbutyl]-3-phenylcyclopropenone]
pIC50: 5.96

CC(C)C[C@H](NS(=O)(=O)Cc1ccccc1)C(=O)N[C@@H](C(C)C)[C@H](O)c1c(-c2ccccc2)c1=O [79 (No. 237), 2-[(1R, 2S)-2-((S)-2-benzylsulfonylamino-4-methylvalerylamino)-1-hydroxy-3-methylbutyl]-3-phenylcyclopropenone]
pIC50: 5.74

CC(C)C[C@H](NC(=O)Nc1ccccc1)C(=O)N[C@@H](C(C)C)[C@@H](O)c1c(-c2ccccc2)c1=O [76 (No. 227)]
pIC50: 5.34

CC(C)C[C@H](NC(=O)CCc1ccccc1)C(=O)N[C@@H](C(C)C)[C@@H](O)c1c(-c2ccccc2)c1=O [42 (No. 133), 2-[(1S, 2S)-1-hydroxy-3-methyl-2-{(S)-4-methyl-2-(3-phenylpropionylamino)valerylamino}butyl]-3-phenylcyclopropenone]
pIC50: 5.82

CC(C)C[C@H](NC(=O)c1ccc(Cl)cc1)C(=O)N[C@@H](C(C)C)[C@@H](O)c1c(-c2ccccc2)c1=O [62 (No. 180), 2-[(1S, 2S)-2-{(S)-2-(4-chlorobenzoylamino)-4-methylvalerylamino}-1-hydroxy-3-methylbutyl]-3-phenylcyclopropenone]
pIC50: 5.85

CC(C)C[C@H](NC(=O)Cc1ccccc1)C(=O)N[C@@H](C(C)C)[C@@H](O)c1c(-c2ccccc2)c1=O [41 (No. 132), 2-[(1S, 2S)-1-hydroxy-3-methyl-2-((S)-4-methyl-2-phenylacetylaminovalerylamino)butyl]-3-phenylcyclopropenone]
pIC50: 5.85

CC(C)C[C@H](NC(=O)C1CCCCC1)C(=O)N[C@@H](C(C)C)[C@@H](O)c1c(-c2ccccc2)c1=O [40 (No. 129), 2-[(1S, 2S)-2-((S)-2-cyclohexylcarbonylamino-4-methylvalerylamino)-1-hydroxy-3-methylbutyl]-3-phenylcyclopropenone]
pIC50: 5.59

Cc1ccc(S(=O)(=O)N[C@@H](CC(C)C)C(=O)N[C@@H](C(C)C)[C@@H](O)c2c(-c3ccccc3)c2=O)cc1 [86 (No. 251), 2-[(1S, 2S)-1-hydroxy-3-methyl-2-{(S)-4-methyl-2-(4-trisulfonylamino)valerylamino}butyl]-3-phenylcyclopropenone]
pIC50: 6.12

CC(C)C[C@H](NS(=O)(=O)c1ccccc1)C(=O)N[C@@H](C(C)C)[C@@H](O)c1c(-c2ccc(F)cc2)c1=O [111 (No. 317), 2-(4-fluorophenyl)-3-[(1S, 2S)-1-hydroxy-3-methyl-2-((S)-4-methyl-2-phenylsulfonylaminovalerylamino)butyl]cyclopropenone]
pIC50: 5.54

CC(C)C[C@H](NS(=O)(=O)c1ccccc1Cl)C(=O)N[C@@H](C(C)C)[C@@H](O)c1c(-c2ccccc2)c1=O [84 (No. 246), 2-[(1S, 2S)-2-{(S)-2-(2-chlorophenylsulfonylamino)-4-methylvalerylamino}-1-hydroxy-3-methylbutyl]-3-phenylcyclopropenone]
pIC50: 6.07

CC(C)C[C@H](NC(=O)c1cccnc1)C(=O)N[C@@H](C(C)C)[C@@H](O)c1c(-c2ccccc2)c1=O [71 (No. 209), 2-[(1S, 2S)-1-hydroxy-3-methyl-2-((S)-4-methyl-2-nicotinoylaminovalerylamino)butyl]-3-phenylcyclopropenone]
pIC50: 5.89

CCCC[C@H](NC(=O)[C@H](CC(C)C)NC(=O)OCc1ccccc1)C(O)c1c(-c2ccc(F)cc2)c1=O (stereo partly drawn) [112 (No. 319), 2[(2S)-2-((S)-2-benzyloxycarbonylamino-4-methylvalerylamino)-1-hydroxyhexyl]-3-(4-fluorophenyl)cyclopropenone]
pIC50: 5.37

CC(C)C[C@H](NC(=O)c1ccnc(Cl)c1)C(=O)N[C@@H](C(C)C)[C@@H](O)c1c(-c2ccccc2)c1=O [73 (No. 216), 2-[(1s, 2S)-2-{(S)-2-(2-chloroisonicotinoylamino)-4-methylvalerylamino}-1-hydroxy-3-methylbutyl]-3-phenylcyclopropenone]
pIC50: 5.85

CC(C)C[C@H](NC(=O)[C@H](Cc1ccccc1)NC(=O)OCc1ccccc1)C(=O)N[C@@H](C(C)C)[C@@H](O)c1c(-c2ccccc2)c1=O [120 (No. 478), 2-[(1S, 2S)-2-{(S)-2-((S)-2-benzyloxycarbonylamino-3-phenylpropionylamino)-4-methylvalerylamino}-1-hydroxy-3-methylbutyl]-3-phenylcyclopropenone]
pIC50: 5.92

CC(C)C[C@H](NC(=O)CCCc1ccccc1)C(=O)N[C@@H](C(C)C)[C@@H](O)c1c(-c2ccccc2)c1=O [43 (No. 134), 2-[(1S, 2S)-1-hydroxy-3-methyl-2-{(S)-4-methyl-2-(4-phenylbutyrylamino)valerylamino}butyl]-3-phenylcyclopropenone]
pIC50: 5.77
